Reference: US7378535B2, “Production of furanones” (Unisearch Limited, A.C.N., priority 1998, dated 2008)

melting point: 100 °C
SMILES: CC(O)C1=CC(=C(Br)Br)OC1=O (stereo not shown) [Example 7, 5-(Dibromomethylene)-3-(1-hydroxyethyl)-2(5H)-furanone]
